Laboratory results: US5550165A, “Pharmaceutical compositions for the treatment of hereditary tyosinemia type I” (Zeneca Limited, priority 1991, dated 1996)

Columns and labels:
[1] = test system: tyrosinaemia (type I) patients; assay: Therapeutic evaluation in patients with tyrosinaemia (type I); format: in vivo, human
Procedure: Patients with an advanced form of the disease will be given the test composition (generally about 0.2-2.0 mg of active ingredient per kg body weight) orally. A blood sample will be taken daily during the first week and then less frequently at the discretion of the physician. Urine specimens will normally be collected daily. The indicators outlined below will be used to monitor the response to the test composition. The treatment will be maintained for up to 12 months if a clinically and biochemically satisfactory response is observed. If not, the dose of active ingredient administered will be increased stepwise to a maximum of about 2 mg/kg per day. Should any adverse indication occur, based on the biochemical monitoring or clinical assessment dosing will be stopped immediately.
The patients will be placed on a tyrosine-restricted diet with the aim of keeping plasma tyrosine concentrations below 500 μmol/L. A large increase in the tyrosine concentration in plasma is not expected to occur, but levels will be monitored throughout the dosing. Changes in the excretion of the biochemical markers mentioned below, such as succinylacetoacetate, succinylacetone and 5-aminolevulinic acid will be monitored, as will the effect on porphobilinogen synthase and α-fetoprotein concentration.
Tyrosine and Methionine--these amino acids will be determined in plasma by a standard technique using an amino-acid analyser.
Succinylacetoacetate and Succinylacetone--these compounds will be determined in urine by gas chromatography--mass spectrometry. Succinylacetone in plasma will be determined by measuring the inhibition of porphobilinogen synthase using a conventional assay.
5-Aminolevulinic acid--this will be determined in urine by a conventional colorimetric assay.
α-Fetoprotein--this will be determined in plasma by a conventional radioimmunoassay technique.
Porphobilinogen synthase--this will be determined in erythrocytes using a conventional colorimetric assay.
A patient was admitted to hospital after problems with slight nose bleedings and the parents noting swelling of the abdomen. Metabolic screening in hospital diagnosed tyrosinaemia (type I) based on the abnormal excretion of succinylacetone, succinylacetoacetate and 5-aminolevulinic acid in urine and a low activity of porphobilinogen synthase in erythrocytes. […] This was increased to 0.16 mg/kg b.w. after four days, and then to about 0.4 mg/kg by the end of the first 2 months, the dose being divided into two portions for morning and afternoon administration. The dose was then increased to about 0.6 mg/kg after a further 5 months.

[2] = 90 day oral toxicity in rhesus monkeys; format: in vivo; conditions: over 90 days, daily oral dose of 10 mg/kg
[3] = test system: tyrosinaemia (type I) patients; assay: Therapeutic evaluation in patients with tyrosinaemia (type I); format: in vivo, human; remark: listed apart in the source
[4] = Patient 1, capsule formulation, 0.08 increased to about 0.6 mg/kg b.w.
[5] = Patient 3, capsule formulation 0.2 mg/kg b.w., after 5 months 0.6 mg/kg b.w.
[6] = Patient 2, capsule formulation 0.2 mg/kg b.w.
[7] = Patient 4, capsule formulation 0.2 mg/kg b.w., after 5 months 0.6 mg/kg b.w.

For `O=C1CCCC(=O)C1C(=O)c1ccc(C(F)(F)F)cc1[N+](=O)[O-]` [the Compound, 2-(2-nitro-4-trifluoromethylbenzoyl)-1,3-cyclohexanedione], the “excretion of 5-aminolevulinic acid” value [1, 4] was “concomitant decrease”, the “porphobilinogen synthase activity in erythrocytes” value [1, 4] was “immediate increase” and the “overall clinical condition of the patient” value ([1]; Patient 1, during the treatment period) was “improved markedly”. For the same compound, the plasma succinylacetone levels ([1]; Patient 1, immediate decrease, after about 30 days) was “to the limit of detection”, the “decrease of concentration of amino acids in urine” value ([1]; Patient 1, very high before treatment, after treatment) was 5-10 times and the “urinary levels of succinylacetone” value [1, 5] was “substantially lowered”. The “toxic or other adverse effects” value [2] was “no significant toxic or other adverse effects”, the “serum α-fetoprotein concentration after dosing” value ([3]; Patient 1, decreased from 7,200 μg/L during dosing) was 96 µg/L and the “excretion of succinylacetone and succinylacetoacetate after treatment” value ([3]; Patient 1, urine, immediate decrease from 50 mmol/mol of creatinine) was < 1 mmol/mol of creatinine. For the same compound, the “methionine concentration in plasma” value ([3]; Patient 1, very high initially, after start of treatment) was “dropped to normal levels very rapidly”, the “clinical position of the patient” value ([3]; Patient 2, 0.2 mg/kg b.w.) was “improved” and the “serum levels of α-fetoprotein after treatment” value (shortened to “serum levels of α-fetoprotein”) ([3]; Patient 2, 0.2 mg/kg b.w., decreased from ca. 900 μg/L) was 40 µg/L. For the same compound, the “serum levels of succinylacetone” value [3, 6] was “decreased”, the “urinary levels of 5-aminolevulinic acid” value [3, 6] was “decreased” and the “urinary levels of succinylacetone” value [3, 6] was “decreased”. For the same compound, the porphobilinogen synthase activity ([3]; Patient 2, capsule formulation 0.2 mg/kg b.w., initial 3 month dosing period) was “increased to normal levels”, the “clinical position of the patient” value ([3]; Patient 3, 0.2 then 0.6 mg/kg b.w.) was “improved” and the “serum levels of α-fetoprotein” value ([3]; Patient 3, 0.2 then 0.6 mg/kg b.w., fell from ca. 900 μg/L) was 11 µg/L. The “plasma levels of succinylacetone” value [3, 5] was “substantially lowered”, the “urinary levels of 5-aminolevulinic acid” value [3, 5] was “substantially lowered” and the “clinical position of the patient” value ([3]; Patient 4, 0.2 then 0.6 mg/kg b.w.) was “improved”. For the same compound, the “serum levels of α-fetoprotein” value ([3]; Patient 4, 0.2 then 0.6 mg/kg b.w., fell from ca. 2000 μg/L) was 48 µg/L, the “plasma levels of succinylacetone” value [3, 7] was “substantially lowered” and the “urinary levels of 5-aminolevulinic acid” value [3, 7] was “substantially lowered”. For the same compound, the “urinary levels of succinylacetone” value [3, 7] was “substantially lowered”.
